Reference: article PMC7177633, “Effective Cellular Transport of Ortho-Halogenated Sulfonamide Derivatives of Metformin Is Related to Improved Antiproliferative Activity and Apoptosis Induction in MCF-7 Cells” (International Journal of Molecular Sciences, 2020)
Where two headings read alike, the source gives them in different places.

Columns and labels:
OCTs [1] = experiment: Inhibition of [14C]choline uptake in MDA-MB-231 cells (competitive inhibition assay); format: cell-based, human; settings: mean ± SD (n = 3)
Description: (§1) The following day, after removal of the culture medium, the cells were carefully washed with prewarmed HBSS (Hanks’ balanced salt solution) containing 125 mM NaCl, 4.8 mM KCl, 1.2 mM MgSO4, 1.2 mM KH2PO4, 1.3 mM CaCl2, 5.6 mM glucose and 25 mM HEPES (pH 7.4). […] Then, the cells were washed three times with ice-cold HBSS (500 μL) and were lysed with 250 μL of 0.1-M NaOH in the ice bath, and the lysate was mixed with 1.0 mL of an emulsifier safe cocktail (PerkinElmer, Waltham, MA, USA). The radioactivity was measured by liquid scintillation counting (MicroBeta^2 counter, PerkinElmer, Waltham, MA, USA). The studies were carried out with the use of at least three replicates from the same cell passage.

MCF-7 cells [2] = experiment: Uptake in the presence of OCT and MATE inhibitors, MCF-7 cells; format: in vitro ADME, human; settings: summary from uptake with inhibitors
Description: (§2) The uptake of sulfonamide derivatives of metformin (1–9) in MCF-7 and MDA-MB-231 cells was studied also in the presence of disopyramide, cimetidine (OCT1 and 3 inhibitors), lopinavir (OCT and PMAT inhibitor) and methenamine (MATE and OCT2 inhibitors). The cells were incubated (37 °C, 10 min) with compounds 1–9 at concentrations of 400 and 800 μmol/L and inhibitors (disopyramide, cimetidine, lopinavir or methenamine) in 250 μL of prewarmed HBSS buffer. The protocol of determination of the compound concentration was as described above.

MDA-MB-231 cells [3] = experiment: Uptake in the presence of OCT and MATE inhibitors, MDA-MB-231 cells; format: in vitro ADME, human; settings: summary from uptake with inhibitors
Description: as §2

OCTs [4] = experiment: Inhibition of [14C]choline uptake in MCF-7 cells (competitive inhibition assay); format: cell-based, human; settings: mean ± SD (n = 3)
Description: as §1

MCF-7 cells [5] = experiment: Cellular uptake of metformin sulfonamides in MCF-7 cells (HPLC); format: in vitro ADME, human
Description: (§3) The uptake of metformin sulfonamides (1–9) in MCF-7 and MDA-MB-231 cells was studied by incubation of the cells with 10−3000 μmol/L of compounds in 250 μL of prewarmed HBSS buffer at 37 °C for 10 min. Subsequently, the cells were then washed three times with 500 μL of ice-cold HBSS and lysed with 250 μL of 0.1-M NaOH. The samples were collected, centrifuged (5 min, 1400 rpm) and the supernatants were analyzed by the HPLC method. The concentration of each compound in the cells was calculated on the basis of the standard curve prepared by spiking known amounts of every compound on the cell layers in 250 μL of 0.1-M NaOH.
(§4) The concentration of the studied sulfonamides (1–9) was assessed using the HPLC system, consisting of an Agilent 1100 binary pump (Agilent Technologies Inc., Wilmington, DE, USA), an 1100 micro-vacuum degasser, an HP 1050 autosampler and an HP 1050 variable wavelength detector (operated at 235 nm). The chromatographic separations of compounds 1–9 were conducted on an Agilent Zorbax SB-C18 analytical column (4.6 mm × 150 mm, 5 μm) using an isocratic elution of water containing 0.1% formic acid (pH ca. 3.0) and acetonitrile containing 0.1% formic acid with a changing ratio, depending on the compound. The analyses were conducted at room temperature (RT). The detailed procedure of chromatographic analysis was described in our previous paper. The studies were conducted in quadruplicates.
(§5) The protein concentrations in representative wells of each plate were assessed using a Bio-Rad protein assay according to the Bradford method (EnVision, PerkinElmer, Inc., Waltham, MA, USA).

MDA-MB-231 cells [6] = experiment: Cellular uptake of metformin sulfonamides in MDA-MB-231 cells (HPLC); format: in vitro ADME, human
Description: as §3, §4, §5

MCF-7 cells [7] = experiment: Cell viability WST-1 assay, MCF-7; format: cell-based; settings: Homo sapiens, MCF7; WST-1, 24 h, mean ± SD (n = 6–8); read-out: IC50 inhibition of MCF-7 cells' viability
Description: (§6) The viability of MCF-7 and MDA-MB-231 cells was determined using a colorimetric WST-1 assay (Takara, Takara Bio Europe, Saint-Germain-en-Laye, France). Both cell lines were seeded at a density of 1 × 10^4 per well on 96-well plates and were cultured for 24 h to obtain 70% confluence. The following day, the cells were treated with various concentrations of compounds 1–9 diluted in the cell culture medium ([…]). The cells were incubated with tested compounds or pure medium (control) for 24 h (37 °C, 5% CO2). Afterwards, the cells were washed with 100 μL of culture medium, and then, the reagent dissolved in the medium was added (100 μL). The plates were incubated at the standard condition for 1.5 h, and the absorbance was read at 450 nm using a microplate reader (iMARK, Bio-Rad, Bio-Rad Laboratories Inc., Hercules, CA, USA). […] The results of samples treated with the test compounds were expressed as a percentage of the control samples. The data were presented as mean ± standard deviation (SD), n = 8. IC50 values (the concentration of the tested compound that inhibited cell growth by 50%) were calculated using a concentration-response curve (GraphPad Prism, Software, San Diego, CA, USA).
(§7) The concentrations contributing to the 50% of cell growth inhibition (IC50) were calculated using nonlinear regression analysis (fitting the curve to log (concentration) vs. cellular response).

MDA-MB-231 cells [8] = experiment: Cell viability WST-1 assay, MDA-MB-231; format: cell-based; settings: Homo sapiens, MDA-MB-231, 24 h, 3000 µmol/L, WST-1, 24 h; read-out: percentage of viability of MDA-MB-231 cells
Description: as §6, §7

MCF-7 cells [9] = experiment: Intracellular GSH and GSSG, MCF-7; format: cell-based, human; settings: MCF-7, 24 h, reference agents: Ascorbic acid 200 µM, AAPH 10 mM
Description: (§8) The quantitative determination of glutathione and glutathione disulfide was performed using the enzymatic recycling method according to the protocol of Rahman. The cells were seeded at a density of 2 × 10^5 per well in a 6-well plate and cultured for 48 h. Then, the cells were treated with tested compounds 1, 4 and 7 at their respective ¼ and ½ IC50 values for MCF-7 and MDA-MB-231 cells. Additionally, controls with pure medium, AAPH (2,2′-Azobis(2-methylpropionamidine) dihydro-chloride, Sigma Aldrich, St. Louis, MO, USA) and ascorbic acid (Polish Chemical Reagents, Poland) were performed. The cells were incubated with compounds for another 24 h, then washed twice with 2 mL of cold, Ca^2+-/Mg^2+-free PBS (Biomed Lublin, Lublin, Poland). The cells were harvested using 1-mL accutase (Sigma Aldrich, St. Louis, MO, USA), and the wells were washed with 1 mL of cold growth medium. The cells were transferred to prechilled 2.0-mL Eppendorf tubes and centrifuged at 1000× g for 5 min at 4 °C. The supernatant was discarded, the pellets were resuspended in 1 mL of cold PBS, the number of cells was determined in each sample and the cellular suspension was centrifuged again. PBS was discarded, and the pellets were stored covered with 30-µL PBS at –70 °C. The following day, the cells were suspended in 0.5 mL of ice-cold extraction buffer (0.1% Triton-X (Polish Chemical Reagents, Gliwice, Poland) and 0.6% sulfosalicylic acid (Sigma Aldrich) in a potassium phosphate buffer with EDTA (Sigma Aldrich)) and sonicated in icy water for 3 min with vortexing every 30 s. The cells were frozen once again at −80 °C, defrosted on ice and frozen once again. Following the second freeze–thaw cycle, the cells were centrifuged at 1500× g for 5 min at 4 °C, and then, immediately, the supernatant was transferred to prechilled Eppendorf tubes. The samples were divided into two parts: one was used to measure GSH, and the other one was derivatized by an addition of 4 µL of 2-vinylpyridine (diluted 1:10 with phosphate buffer) (Sigma Aldrich, St. Louis, MO, USA) to determine the GSSG content.
(§9) GSH measurements included an addition of 20 µL of the tested sample, blank or GSH standard, 120 µL of the mixture of an equal volume of DTNB solution (2 mg dissolved in 3 mL of phosphate buffer, Sigma Aldrich) and glutathione reductase (10 U in 3 mL of phosphate buffer, Sigma Aldrich, St. Louis, MO, USA) and 30 s of incubation to allow the conversion of GSSG to GSH. The final step included the addition of 60 µL of β-NADPH (2 mg dissolved in 3 mL of phosphate buffer, Sigma Aldrich). The absorbance was read immediately at 415 nm in a microplate reader (Bio-Rad), and the measurements were taken every 30 s for 2 min (6 readings in total). The amount of GSH was calculated on the basis of the calibration curve prepared using GSH (Sigma Aldrich, St. Louis, MO, USA) at concentrations ranging from 0.040 to 2.6 nmol/mL.
(§10) The quantification of GSSG in the test samples was performed according to the same procedure as GSH. The samples treated with 2-VP were incubated for one hour at room temperature, and then, 20 µL of the tested sample was analyzed using the same reagents which were applied in the GSH measurements. The amount of GSSG was calculated on the basis of the calibration curve, prepared using GSSG (Sigma Aldrich) at concentrations of 0.040–2.6 nmol/mL. The results are presented as mean ± SD, n = 6–8 and expressed as nmol per […].

MDA-MB-231 cells [10] = experiment: Intracellular GSH and GSSG, MDA-MB-231; format: cell-based, human; settings: MDA-MB-231, 24 h, reference agents: Ascorbic acid 200 µM, AAPH 10 mM
Description: as §8, §9, §10

[11] = 800 μmol/L, 10 min incubation, 37 °C
[12] = Eadie-Hofstee analysis, transporter I
[13] = Eadie-Hofstee analysis, transporter I, read-out: Km, transporter I, MDA-MB-231
[14] = Eadie-Hofstee analysis, transporter II
[15] = Eadie-Hofstee analysis, transporter II, read-out: Km, transporter II, MDA-MB-231

SMILES	IC50 (OCTs [1]) [µM]	interactions with OCT, PMAT and MATE1 transporters, MCF-7 (MCF-7 cells [2])	interactions with OCT, PMAT and MATE1 transporters, MDA-MB-231 (MDA-MB-231 cells [3])	IC50 (OCTs [4]) [µM]	Vmax, transporter I, MDA-MB-231 (MDA-MB-231 cells [6]; [12]) [nmol/min/mg]	Km (MDA-MB-231 cells [6]; [13]) [µM]	Vmax, transporter II, MDA-MB-231 (MDA-MB-231 cells [6]; [14]) [nmol/min/mg]	Km (MDA-MB-231 cells [6]; [15]) [µM]	IC50 (MCF-7 cells [7]) [µM]	viability at 3000 µM (MDA-MB-231 cells [8]) [%]	GSH (MCF-7 cells [9]) [nmol/1 mln Cells]	GSH:GSSG Ratio (MCF-7 cells [9])	GSSG (MCF-7 cells [9]) [nmol/1 mln Cells]	GSH (MDA-MB-231 cells [10]) [nmol/1 mln Cells]	GSH:GSSG Ratio (MDA-MB-231 cells [10])	GSSG (MDA-MB-231 cells [10]) [nmol/1 mln Cells]	other results
CN(C)C(=N)N=C(N)NS(=O)(=O)c1ccc(F)cc1 [Compound 9]	1380 ± 14	PMAT	OCT1, OCT3	1057 ± 7.5	0.097 ± 0.015	1880 ± 429	0.053 ± 0.012	2220 ± 618	422 ± 32.8	~60							uptake into MCF-7 cells (MCF-7 cells [5]; [11]): 0.357 ± 0.112 nmol/min/mg protein; uptake into MDA-MB-231 cells (MDA-MB-231 cells [6]; [11]): 0.021 ± 0.002 nmol/min/mg protein
CN(C)C(=N)N=C(N)NS(=O)(=O)c1cccc(F)c1 [Compound 8]	2284 ± 14	OCT1	OCT1, OCT3	7195 ± 5.3	0.049 ± 0.025	1240 ± 1310	0.045 ± 0.021	3380 ± 2130	171 ± 13.6	~60							Vmax, transporter I, MCF-7 (MCF-7 cells [5]; [12]): 0.830 ± 0.171 nmol/min/mg; Km (MCF-7 cells [5]; Eadie-Hofstee analysis, transporter I, read-out: Km, transporter I, MCF-7): 2840 ± 778 µM; uptake into MCF-7 cells at higher concentrations (MCF-7 cells [5]; concentrations above 1600 μmol/L): 8–10 nmol/min/mg of protein; Vmax MDA-231 cells (Michaelis Menten curves) (MDA-MB-231 cells [6]; Michaelis-Menten curve): 0.126 ± 0.032 nmol/min/mg; Km (MDA-MB-231 cells [6]; Michaelis-Menten curve, read-out: Km MDA-231 cells (Michaelis Menten curves)): 7400 ± 510 µM; transport efficacy (Vmax/Km) in MCF-7 relative to MDA-MB-231 (MDA-MB-231 cells [6]; fold lower in MDA-MB-231 than in MCF-7): approximately 22 fold
CC(C)(N=NC(C)(C)C(=N)N)C(=N)N.Cl.Cl [AAPH, 2,2′-Azobis(2-methylpropionamidine) dihydrochloride, reference compound]											117.6 ± 7.8	8.9	12.8 ± 0.5	102.7 ± 3.2	6.9	14.3 ± 1.9	
O=C1O[C@H]([C@@H](O)CO)C(O)=C1O [Ascorbic acid, reference compound]											153.1 ± 5.4	25.3	6.0 ± 0.4	249.6 ± 20.8	13.9	17.9 ± 1.5	
